Test results: patent US20260224494A1, “MILVEXIAN PHARMACEUTICAL COMPOSITIONS” (BRISTOL-MYERS SQUIBB COMPANY, priority 2023, published 2026)
Converted amounts (≈) assume the structure as drawn. Read-outs that look alike come from different tables or passages of the source.

Legend:
[1] = Solubility of milvexian forms in organic solvent systems; format: physicochemical
Protocol: While heating of the feed solution is a viable solution for production, it is a more complex set-up and with risk of crashing out dissolved solids in case of cold spots and plant safety. Various solvent systems (See Table 11 below) were investigated with primary focus on solvent systems containing DCM due to its low boiling point and excellent solubilization properties.
Based on the data it was determined that 70/30 w/w % DCM/MeOH and 80/20 w/w % were promising solvent mixtures and more accurate solubility determination was carried out for 80/20 w/w % DCM/MeOH for both FORM A and P1.Acetone solvate at 20° C. with the results shown in Table 12 below.
P1.Acetone was the preferred crystalline form of milvexian for physical stability and manufacturability reasons. Based on the above, 80/20 w/w % DCM/MeOH solvent system was selected for development due to highly increase solubility over the 90/10 w/w % Acetone/Water solvent system.

[2] = Acetone/Water 90:10 w/w, cited from earlier work

C[C@@H]1CCC[C@H](n2cnc(-c3cc(Cl)ccc3-n3cc(Cl)nn3)cc2=O)c2cc(ccn2)-c2c(cnn2C(F)F)NC1=O
solubility ([1]; 80/20 w/w % DCM/MeOH, 20 °C, organic solvent or mixture, 80/20 w/w % DCM/MeOH, read-out: solubility): 230 mg/mL (≈ 367 mM)

C[C@@H]1CCC[C@H](n2cnc(-c3cc(Cl)ccc3-n3cc(Cl)nn3)cc2=O)c2cc(ccn2)-c2c(cnn2C(F)F)NC1=O [FORM A]
solubility at 24 hours ([1]; 70/30 DCM/MeOH, 20 °C, organic solvent or mixture, thermodynamic from solid, 70/30 DCM/MeOH, 20° C., 24 hours, read-out: Solubility in mg/mL solution 24 hours): 221 mg/mL (≈ 353 mM) | Solubility in mg/mL solution 2 weeks ([1]; 70/30 DCM/MeOH, 20° C.): 204 mg/mL (≈ 326 mM) | Solubility in mg/mL solution 2 weeks ([1]; 80/20 DCM/MeOH, 20° C.): 255 mg/mL (≈ 407 mM) | Solubility in mg/mL solution 24 hours ([1]; 80/20 DCM/MeOH, 20° C., 24 hours): 272 mg/mL (≈ 434 mM) | solubility ([1]; 80/20 w/w % DCM/MeOH, listed as crystalline Form A of milvexian free form): 255 mg/mL (≈ 407 mM) | solubility ([1]; DCM/MeOH solvent systems of Table 12, 20 °C, organic solvent or mixture, DCM/MeOH solvent systems of Table 12, read-out: solubilities achievable): > 220 mg/mL

C[C@@H]1CCC[C@H](n2cnc(-c3cc(Cl)ccc3-n3cc(Cl)nn3)cc2=O)c2cc(ccn2)-c2c(cnn2C(F)F)NC1=O [Milvexian, (5R,9S)-9-(4-(5-chloro-2-(4-chloro-1H-1,2,3-triazol-1-yl)phenyl)-6-oxopyrimidin-1(6H)-yl)-21-(difluoromethvl)-5-methyl-21H-3-aza-1(4,2)-pyridina-2(5,4)-pyrazolacyclononaphan-4-one]
solubility ([1]; 30/70 DCM/MeOH, 20 °C, organic solvent or mixture, 30/70 DCM/MeOH, temperature 20, read-out: Solubility in mg/mL solution): 16 mg/mL (≈ 25.5 mM) | solubility ([1]; 30/70 DCM/MeOH, 40 °C, organic solvent or mixture, 30/70 DCM/MeOH, temperature 40, read-out: Solubility in mg/mL solution): 26 mg/mL (≈ 41.5 mM) | Solubility description ([1]; 30/70 DCM/MeOH, temperature 20): Sparingly soluble | Solubility description ([1]; 30/70 DCM/MeOH, temperature 40): Sparingly soluble | solubility ([1]; 40/60 DCM/MeOH, 20 °C, organic solvent or mixture, 40/60 DCM/MeOH, temperature 20, read-out: Solubility in mg/mL solution): 29 mg/mL (≈ 46.3 mM) | solubility ([1]; 40/60 DCM/MeOH, 40 °C, organic solvent or mixture, 40/60 DCM/MeOH, temperature 40, read-out: Solubility in mg/mL solution): 44 mg/mL (≈ 70.2 mM) | Solubility description ([1]; 40/60 DCM/MeOH, temperature 20): Sparingly soluble | Solubility description ([1]; 40/60 DCM/MeOH, temperature 40): Soluble | solubility ([1]; 50/50 DCM/MeOH, 20 °C, organic solvent or mixture, 50/50 DCM/MeOH, temperature 20, read-out: Solubility in mg/mL solution): 58 mg/mL (≈ 92.6 mM) | solubility ([1]; 50/50 DCM/MeOH, 40 °C, organic solvent or mixture, 50/50 DCM/MeOH, temperature 40, read-out: Solubility in mg/mL solution): 77 mg/mL (≈ 123 mM) | Solubility description ([1]; 50/50 DCM/MeOH, temperature 20): Soluble | Solubility description ([1]; 50/50 DCM/MeOH, temperature 40): Soluble | solubility ([1]; 60/40 DCM/MeOH, 20 °C, organic solvent or mixture, 60/40 DCM/MeOH, temperature 20, read-out: Solubility in mg/mL solution): 120 mg/mL (≈ 192 mM) | solubility ([1]; 60/40 DCM/MeOH, 40 °C, organic solvent or mixture, 60/40 DCM/MeOH, temperature 40, read-out: Solubility in mg/mL solution): > 200 mg/mL | Solubility description ([1]; 60/40 DCM/MeOH, temperature 20): Freely Soluble | Solubility description ([1]; 60/40 DCM/MeOH, temperature 40): Freely Soluble | solubility ([1]; 70/30 DCM/MeOH, 20 °C, organic solvent or mixture, 70/30 DCM/MeOH, temperature 20, read-out: Solubility in mg/mL solution): > 200 mg/mL | solubility ([1]; 70/30 DCM/MeOH, 40 °C, organic solvent or mixture, 70/30 DCM/MeOH, temperature 40, read-out: Solubility in mg/mL solution): > 200 mg/mL | Solubility description ([1]; 70/30 DCM/MeOH, temperature 20): Freely Soluble | Solubility description ([1]; 70/30 DCM/MeOH, temperature 40): Freely Soluble | solubility ([1]; 80/20 DCM/MeOH, 20 °C, organic solvent or mixture, 80/20 DCM/MeOH, temperature 20, read-out: Solubility in mg/mL solution): > 200 mg/mL | solubility ([1]; 80/20 DCM/MeOH, 40 °C, organic solvent or mixture, 80/20 DCM/MeOH, temperature 40, read-out: Solubility in mg/mL solution): > 200 mg/mL | Solubility description ([1]; 80/20 DCM/MeOH, temperature 20): Freely Soluble | Solubility description ([1]; 80/20 DCM/MeOH, temperature 40): Freely Soluble | solubility ([1]; 90/10 DCM/MeOH, 20 °C, organic solvent or mixture, 90/10 DCM/MeOH, temperature 20, read-out: Solubility in mg/mL solution): > 200 mg/mL | solubility ([1]; 90/10 DCM/MeOH, 40 °C, organic solvent or mixture, 90/10 DCM/MeOH, temperature 40, read-out: Solubility in mg/mL solution): > 200 mg/mL | Solubility description ([1]; 90/10 DCM/MeOH, temperature 20): Freely Soluble | Solubility description ([1]; 90/10 DCM/MeOH, temperature 40): Freely Soluble | solubility ([1]; 100% DCM, 20 °C, organic solvent or mixture, 100% DCM, temperature 20, read-out: Solubility in mg/mL solution): 29 mg/mL (≈ 46.3 mM) | solubility ([1]; 100% DCM, 40 °C, organic solvent or mixture, 100% DCM, temperature 40, read-out: Solubility in mg/mL solution): 51 mg/mL (≈ 81.4 mM) | Solubility description ([1]; 100% DCM, temperature 20): Sparingly soluble | Solubility description ([1]; 100% DCM, temperature 40): Soluble | solubility ([1]; 100% MeOH, 20 °C, organic solvent or mixture, 100% MeOH, temperature 20, read-out: Solubility in mg/mL solution): 4.2 mg/mL (≈ 6.7 mM) | solubility ([1]; 100% MeOH, 40 °C, organic solvent or mixture, 100% MeOH, temperature 40, read-out: Solubility in mg/mL solution): 6.6 mg/mL (≈ 10.5 mM) | Solubility description ([1]; 100% MeOH, temperature 20): Slightly soluble | Solubility description ([1]; 100% MeOH, temperature 40): Slightly soluble | solubility ([1]; acetone/water 90/10 w/w %, 20 °C, organic solvent or mixture, acetone/water (90/10 w/w %), room temperature, read-out: solubility): 36 mg/mL (≈ 57.5 mM) | solubility ([1]; acetone/water 90/10 w/w %, 49 °C, organic solvent or mixture, acetone/water (90/10 w/w %), 49° C., read-out: solubility): 70 mg/mL (≈ 112 mM) | solubility ([2]; 20° C.): 36 mg/mL (≈ 57.5 mM) | solubility ([2]; 50° C.): 70 mg/mL (≈ 112 mM)
